Measured values taken from patent US4673436A, “N, S containing corrosion inhibitors” (Exxon Chemical Patents Inc., priority 1986, dated 1987).

Columns and labels:
[1] = Corrosion wheel test, sweet (50-50 3% NaCl brine - Mentor, saturated CO2 only), Tables III, VI, VII; conditions: for % Protection @ 2 ppm / % Protection @ 4 ppm / % Protection @ 8 ppm / % Protection @ 32 ppm / % Protection @ 128 ppm: 160° F., 24 hours, saturated CO2 only; for corrosion protection / performance (in words): CO2 only corrosive environment
[2] = Corrosion wheel test, sweet-sour, all water system (3% NaCl brine, saturated CO2 + 100 ppm H2S), Table I; conditions: 160° F., 24 hours, 3% NaCl brine only
Experimental: (§1) Twelve quaternary ammonium salts according to the present invention, were tested under four standard sets of corrosion wheel test conditions. These include a sweet-sour test in an all water system under a range of concentrations from 4-256 ppm (TABLE I). Tests 2 and 3 were run under sweet (TABLE III), and sour conditions (TABLE II) at low (4 ppm) and high (256 ppm) concentrations only. A film persistency test (TABLE IV) was also run for completeness of the screening sequence; however, it was not expected that these water soluble compounds would perform well under these test conditions. Due to the low solubility of some C18 derivatives, 20% activity was adopted as a standard, with the C18 compounds being submitted at 10% activity and added at double concentration to the test fluids. […] Compounds are generally water and low brine soluble, hydrocarbon dispersible with some C18 derivatives being soluble in both fresh water and hydrocarbon.
Blank weight loss: 40 ± 0.9 mg
(§2) Fluids: 3% NaCl brine only
(§3) Saturated CO2 + 100 ppm H2 S
(§4) Duplicates w/ triplicate blanks

[3] = Corrosion wheel test, sour (3% NaCl brine, saturated N2 + 500 ppm H2S), Table II; conditions: 160° F., 24 hours, 3% NaCl brine only
Experimental: as §1
Blank weight loss: 55.8 ± 1.0 mg
as §2
Saturated N2 + 500 ppm H2 S
Duplicates and triplicate blanks

[4] = Inhibitor solubility test, Table V; assay type: physicochemical; conditions: 20% active inhibitor added at 0.5% by volume; observed initially and after 24 hours
[5] = Corrosion wheel test, sweet (50-50 3% NaCl brine - Mentor, saturated CO2 only), Tables III, VI, VII; conditions: Table III, 160° F., 24 hours
Experimental: Twelve quaternary ammonium salts according to the present invention, were tested under four standard sets of corrosion wheel test conditions. These include a sweet-sour test in an all water system under a range of concentrations from 4-256 ppm (TABLE I). Tests 2 and 3 were run under sweet (TABLE III), and sour conditions (TABLE II) at low (4 ppm) and high (256 ppm) concentrations only.
(§5) Fluids: 50-50 3% NaCl brine - Mentor
as §4
Fluids: 50-50 - 3% NaCl brine - Mentor

[6] = Film persistent corrosion wheel test (50-50 3% NaCl brine - Mentor, saturated CO2 + 100 ppm H2S), Table IV; conditions: 160° F., film 1 hr, rinse 1 hr, run 24 hrs, single data points
Experimental: as §1
Blank weight loss: 58.3 ± 3.3 mg
Film 1 hr, Rinse 1 hr, Run 24 hrs.
as §5, §3
Single data points with triplicate blanks

[7] = Table VII, thiol addition comparison

| Solubility in 5% NaCl brine [4] | Solubility in aromatic naphtha [4] | Solubility in distilled water [4] | Solubility in kerosene [4] | SMILES | % Protection @ 2 ppm ([1]; Table VI confirmatory test) | % Protection @ 4 ppm ([1]; Table VI confirmatory test) | % Protection @ 8 ppm ([1]; Table VI confirmatory test) | % Protection @ 32 ppm ([1]; Table VI confirmatory test) | % Protection @ 128 ppm ([1]; Table VI confirmatory test) | % Protection @ 2 ppm [1, 7] | % Protection @ 8 ppm [1, 7] | % Protection @ 4 ppm [2] | % Protection @ 8 ppm [2] | % Protection @ 16 ppm [2] | % Protection @ 256 ppm [2] | % Protection @ 4 ppm [3] | % Protection @ 256 ppm [3] | % Protection @ 4 ppm [5] | % Protection @ 256 ppm [5] | % Protection @ 10,000 ppm [6] | other results |
| --- | --- | --- | --- | --- | --- | --- | --- | --- | --- | --- | --- | --- | --- | --- | --- | --- | --- | --- | --- | --- | --- |
| disp | disp | sol | disp | CCCCCCCCCCCC[N+](C)(C)CCS [Compound 2] | 13% | 42% | 69% | 82% | 80% | 23% | 72% | 35% | 44% | 67% | 77% | 23% | 79% | 56% | 81% | 64% | % Protection @ 128 ppm [1, 7]: 84% |
|  |  |  |  | CCCCCCCCCC[N+](C)(C)C [C10 H21 NMe3 I, reference compound] |  |  |  |  |  | 0% | 4% |  |  |  |  |  |  |  |  |  | corrosion protection / performance (in words) ([1]; Table VII): too short an alkyl chain length to function effectively as a corrosion inhibitor; % Protection @ 128 ppm [1, 7]: 3% |
| insol | disp | sol | disp | CCCCCCCCCCCCCCCCCC[N+](C)(C)CCCS [Compound 6] | 30% | 74% | 75% | 80% | 85% |  |  | 11% | 26% | 59% | 75% | 14% | 71% | 83% |  | 71% |  |
| insol | disp | disp | disp | CCCCCCCCCCCCCCCCCCSCC[N+](C)(C)C [Compound 9] |  |  |  |  |  |  |  | 26% | 33% | 52% | 66% | 6% | 75% | 38% | 84% | 17% |  |
| sol | disp | sol | disp | CCCCCCCCSCCC[N+](C)(C)C [Compound 10] | 10% | 12% | 20% | 25% | 51% |  |  | 18% | 23% | 24% | 50% | 12% | 75% | 81% |  | 8% |  |
|  |  |  |  | CCCCCCCCCCCCS [C12 H25 SH, dodecane thiol, reference compound] |  |  |  |  |  | 4% | 7% |  |  |  |  |  |  |  |  |  | corrosion protection / performance (in words) ([1]; Table VII): neither did dodecene thiol alone give any corrosion protection; % Protection @ 128 ppm [1, 7]: 0% |
| disp | disp | sol | disp | CCCCCCCC[N+](C)(C)CCCS [Compound 4] | 41% | 63% | 82% | 80% | 78% | 62% | 86% | 32% | 55% | 66% | 76% | 3% | 81% | 83% | 86% | 14% | % Protection @ 128 ppm [1, 7]: 85% |
| insol | sol | sol | disp | CCCCCCCCCCCCCCCCCCSCCC[N+](C)(C)C [Compound 12] |  |  |  |  |  |  |  | 49% | 56% | 57% | 69% | 14% | 81% | 50% | 83% | 14% |  |
| sol | disp | sol | disp | CCCCCCCCSCC[N+](C)(C)C [Compound 7] |  |  |  |  |  |  |  | 15% | 17% | 11% | 31% | 7% | 72% | 29% | 65% | 11% |  |
| disp | sol | sol | sol | CCCCCCCCCCCCCCCCCC[N+](C)(C)CCS [Compound 3] | 18% | 18% | 76% | 79% | 81% |  |  | 31% | 41% | 58% | 60% | 11% | 83% | 62% | 92% | 53% |  |

| SMILES | Solubility in 5% NaCl brine [4] | Solubility in aromatic naphtha [4] | Solubility in distilled water [4] | Solubility in kerosene [4] | % Protection @ 2 ppm ([1]; Table VI confirmatory test) | % Protection @ 4 ppm ([1]; Table VI confirmatory test) | % Protection @ 8 ppm ([1]; Table VI confirmatory test) | % Protection @ 32 ppm ([1]; Table VI confirmatory test) | % Protection @ 128 ppm ([1]; Table VI confirmatory test) | % Protection @ 2 ppm [1, 7] | % Protection @ 8 ppm [1, 7] | % Protection @ 4 ppm [2] | % Protection @ 8 ppm [2] | % Protection @ 16 ppm [2] | % Protection @ 256 ppm [2] | % Protection @ 4 ppm [3] | % Protection @ 256 ppm [3] | % Protection @ 4 ppm [5] | % Protection @ 256 ppm [5] | % Protection @ 10,000 ppm [6] | other results |
| --- | --- | --- | --- | --- | --- | --- | --- | --- | --- | --- | --- | --- | --- | --- | --- | --- | --- | --- | --- | --- | --- |
| CCCCCCCCCCCCSCCC[N+](C)(C)C [Compound 11] | sol | disp | sol | disp |  |  |  |  |  |  |  | 21% | 27% | 35% | 79% | 15% | 80% | 60% | 84% | 20% |  |
| CCCCCCCCCCCCSCC[N+](C)(C)C [Compound 8] | sol | disp | sol | disp | 9% | 19% | 18% | 62% | 82% |  |  | 7% | 13% | 23% | 81% | 3% | 78% | 14% | 76% | 19% |  |
| CCCCCCCCCCCC[N+](C)(C)CCCS [Compound 5] | sol | disp | sol | disp | 45% | 63% | 79% | 80% | 78% |  |  | 30% | 59% | 67% | 76% | 17% | 77% | 82% | 85% | 25% |  |
